Several values for one entry are separate records, joined by “and”; a condition that tells them apart may be missing. Equal entries are not always repeated. Bridge positions count the residues as written; N and C are the ends. Ends that are not written are not given here.
Tests used:
Botrytis cinerea [1] = test: Antifungal MIC, 96-well plate spectrophotometric / resazurin cell viability assay; assay type: cell-based; conditions: for SFM + 2 mM CaCl2 (antifungal activity/MIC): SFM supplemented with 2 mM CaCl2; for SM + 100 mM NaCl (antifungal activity/MIC): medium supplemented with 100 mM NaCl
Method: (§1) The fungal strain of Botrytis cinerea T-4 was cultured in 20% V8 growth medium. Alternaria alternata was grown on potato dextrose agar. Fungal spores were harvested by flooding the fungal growth plates with sterile water. The spore suspension was filtered through two layers of Miracloth, centrifuged at 13,600 rpm for 1 min, washed, and re-suspended in low-salt Synthetic Fungal Medium (SFM) (U.S. Pat. No. 6,916,970). The spore suspension was adjusted to equivalent spore density using a hemocytometer.
(§2) Antifungal activity of NCR13_PFV1 and NCR13_PFV2 was assessed at different concentrations using a 2-fold dilution series of each peptide. Antifungal activity of each peptide was determined spectrophotometrically using the 96-well plate assay (Sagaram et al., (2011) PLoS One. doi: 10.1371/journal.pone.0018550; Sagaram et al., (2013). PLoS One. 2013 Dec. 4; 8(12):e82485. doi: 10.1371/journal.pone.0082485). Forty-five microliters of each peptide at different concentrations was added to each well of the microtiter plate containing 45 μL of ˜10^5 spores/ml spore suspension. The quantitative fungal growth inhibition was determined by measuring the absorbance at 595 nm using a microplate reader (Tecan Infinite M200 ProTecan Systems Inc., San Jose, CA) after 48 h. The fungal cell viability was determined by the resazurin cell viability assay (Li et al., 2019, MPMI 32, 1649-1664; Velivelli et al., 2020, doi.org/10.1073/pnas.2003526117). After incubation of the pathogen/peptide mixture for 48 h, 1 of 0.1% resazurin solution was added to each well. After incubation of the mixture overnight, a change in the color of the resazurin dye from blue to pink or colorless indicated the presence of live fungal cells. The MIC for each peptide was the lowest concentration of each peptide at which no change in blue color occurred. Using this protocol, the MIC value of NCR13_PFV1 and NCR13_PFV2 was also determined in presence of 100 mM NaCl and 2 mM CaCl2).
The MIC of NCR13_PFV1 and NCR13_PFV2 against B. cinerea was determined (Table 3). MIC assays were carried out in 2×SFM. […] We therefore determined antifungal activity of NCR13_PFV1 and NCR13_PFV2 in SFM supplemented with 100 mM NaCl or 2 mM CaCl2) (Table 3).

Cercospora sojina [2] = test: as above; assay type: cell-based; conditions: Synthetic Fungal Medium
Method: Cercospora sojina and Alternaria alternata conidia were harvested from a fully grown culture plate by gently dislodging the conidia with an L-spreader in the presence of 5 ml sterile water. To remove mycelial fragments, the spore suspension was filtered through three layers of miracloth and washed twice with sterile water at 13,000 rpm for 2 minutes. The spore concentration was adjusted to 1×10^5 spores/ml using a hemocytometer.
as §2, with “After incubation of the pathogen/peptide mixture for 48 h, 1 of 0.1% resazurin solution was added to each well. After incubation of the mixture overnight, a change in the color of the resazurin dye from blue to pink or colorless indicated the presence of live fungal cells. The MIC for each peptide was the lowest concentration of each peptide at which no change in blue color occurred. Using this protocol, the MIC value of NCR13_PFV1 and NCR13_PFV2 was also determined in presence of 100 mM NaCl and 2 mM CaCl2).” left out

Alternaria alternata [3] = test: as above; assay type: cell-based; conditions: Synthetic Fungal Medium
Method: as §1
Cercospora sojina and Alternaria alternata conidia were harvested from a fully grown culture plate by gently dislodging the conidia with an L-spreader in the presence of 5 ml sterile water. […]
Antifungal activity of NCR13_PFV1 and NCR13_PFV2 was assessed at different concentrations using a 2-fold dilution series of each peptide. Antifungal activity of each peptide was determined spectrophotometrically using the 96-well plate assay (Sagaram et al., (2011) PLoS One. doi: 10.1371/journal.pone.0018550; Sagaram et al., (2013). PLoS One. 2013 Dec. 4; 8(12):e82485. doi: 10.1371/journal.pone.0082485). […] The quantitative fungal growth inhibition was determined by measuring the absorbance at 595 nm using a microplate reader (Tecan Infinite M200 ProTecan Systems Inc., San Jose, CA) after 48 h. […]

[4] = tested on: Sclerotinia sclerotiorum 555; test: In vitro antifungal activity, 24-well plate mycelial plug assay; assay type: cell-based; conditions: 2 dpi; for SFM MIC: Sclerotinia sclerotiorum 555
Method: Sclerotinia sclerotiorum (S. sclerotiorum) 555 fungal cultures were grown on potato dextrose agar (PDA) medium (Difco Laboratories Inc., Detroit, MI, USA) at room temperature.
The antifungal activity of NCR13_PFV1 against S. sclerotiorum 555 was measured in an in vitro assay using 24-wells plate assay. Mycelial plugs (1 mm in diameter) cut from the margin of two day-old actively growing colony were transferred from potato dextrose agar media to a series of wells containing 125 microliter (L) of 2×SFM medium (U.S. Pat. No. 6,916,970), with 125 μL of NCR13_PFV1 at varying concentrations of 3, 6, 12 and 24 μM. The plates were incubated at room temperature for 2 days prior to assessment. The mycelium diameter growth was measured 2 dpi using ImageJ software. NCR13 PFV1 peptide effects were calculated as a percentage from the difference between growth of the control and treated mycelium using the formula:
IG (%)=(Dc−Dt)/Dc×100; where IG is inhibition of growth, Dc is the mycelium diameter (mm) of the control and Dt is the mycelium diameter (mm) of the peptide-treated dishes.

Alternaria alternata [5] = test: Microscopic observation of antifungal activity (light microscope, 20x); assay type: cell-based; conditions: A. alternata; peptide at 3 μM
Text: (§3) The presence of germinating conidia/mycelial fragments was observed under a light microscope at 20× magnification. […] (FIG. 3A).

Cercospora sojina [6] = test: as above; assay type: cell-based
Text: as §3

B. cinerea = test: Semi-in planta drop-inoculation assay, gray mold on detached N. benthamiana leaves; assay type: in vivo, Botrytis cinerea; conditions: for inhibition of gray mold disease symptoms: 3 μM
Text: FIG. 4 depicts a drop-inoculation assay showing semi-in planta antifungal activity of NCR13_PFV1 and NCR13_PFV2 in detached N. benthemiana leaves.
In semi-in-planta studies, detached leaves of N. benthamiana, were used to check the potential of both NCR13_PFV1 and NCR13_PFV2 to reduce gray mold disease symptoms caused by B. cinerea (FIG. 4).

Botrytis cinerea [7] = test: Tomato fruit infection assay, drop inoculation; assay type: in vivo; conditions: for visible fungal growth on tomato fruits: B. cinerea, 0.75 μM peptide applied 12 hpi, 3 dpi; for control of B. cinerea growth in tomato fruits: 0.75 μM peptide, 5 dpi
Method: Antifungal activity assays were performed on commercially available tomato fruits. A total of 36 tomato fruits (12 fruits per treatment) were washed with 0.01% bleach and rinsed three times with sterile distilled water. Carborundum Powder (Fisher Chemical, USA) was gently rubbed on the fruit surface to create microinjuries. The fruits were inoculated with 20 μl B. cinerea conidia (1×10^5 conidia ml-1) via drop inoculation. Conidia of B. cinerea were prepared as described above. Fruits were incubated in a Ziploc weather shield box containing moist paper towels to maintain high humidity after drop inoculation. 20 μl of peptide solution (0.75 μM of NCR13_PFV1 or NCR13_PFV2) was applied to the drop inoculated conidial suspension at 12 hours post-inoculation (hpi) and incubated for 5 days.

S. sclerotiorum 555 [8] = test: Semi-in planta antifungal assay on detached soybean leaves; assay type: in vivo, Sclerotinia sclerotiorum; conditions: 2 dpi
Method: Representative pictures (under white light and with CropReporter based on the value of potential photosynthetic efficiency Fv/Fm) taken 48 h post-infection showing the antifungal activity of NCR13_PFV1.
(§4) For the semi-in planta antifungal assays, a 1 mm plug was taken from the leading edge of freshly cultured 2-day old fungal colony from PDA media and placed on approximately 3-4 weeks of age detached soybean leaves and pods (6 weeks of age). Then, 40 μL solution of NCR13_PFV1 at various concentrations or water was applied immediately on the plug and were allowed to incubate under high humidity for 2-3 days prior to assessment. The severity of disease lesions on each leaf was assessed using the CropReporter system as described in Li et al. Mol Plant Microbe Interact. 2019; 32:1649-1664. doi: 10.1094/MPMI-08-19-0224-R. Epub 2019 Oct. 28. PMID: 31425003. In addition, high-resolution fluorescence images were taken using CropReporter (PhenoVation, Wageningen, Netherlands).

S. sclerotiorum 555 [9] = test: Semi-in planta antifungal assay on detached soybean pods; assay type: in vivo, Sclerotinia sclerotiorum; conditions: 3 dpi
Method: Representative pictures taken 72 h post-infection showing the antifungal activity of NCR13_PFV1.
as §4
Detached soybean pods from 6-week-old plants were infected with 1 mm plug of S. sclerotiorum 555 followed by the application of a drop of NCR13_PFV1 on the plug. […] We observed that NCR13_PFV1 confers fungicidal activity with 100% protection against S. sclerotiorum 555 at 3 dpi (FIG. 6).

| Substance | SFM + 2 mM CaCl2 (antifungal activity/MIC) (Botrytis cinerea [1]) | SFM MIC (Botrytis cinerea [1]; Synthetic Fungal Medium, 48 h, resazurin) [µM] | SM + 100 mM NaCl (antifungal activity/MIC) (Botrytis cinerea [1]) | SFM MIC (Cercospora sojina [2]) [µM] | SFM MIC (Alternaria alternata [3]) | SFM MIC [4] | conidial germination / mycelial growth under the microscope (Alternaria alternata [5]) | concentration at which C. sojina growth was inhibited (microscopy) (Cercospora sojina [6]) [µM] | fold higher inhibitory concentration versus the other folding variant (Cercospora sojina [6]; C. sojina) | inhibition of gray mold disease symptoms (B. cinerea) | visible fungal growth on tomato fruits (Botrytis cinerea [7]) | antifungal activity of NCR13_PFV1 relative to NCR13_PFV2 (from MIC) (Botrytis cinerea [1]) | S. sclerotiorum 555 mycelial growth in vitro ([4]; 3, 6, 12 and 24 μM) | activity against gray mold disease relative to NCR13_PFV2 (B. cinerea) | lesion size (S. sclerotiorum 555 [8]) | protection against S. sclerotiorum 555 (S. sclerotiorum 555 [9]) [%] | lesion or decay development (S. sclerotiorum 555 [9]; compared to water control) | control of B. cinerea growth in tomato fruits (Botrytis cinerea [7]) | control of B. cinerea growth in tomato fruits (Botrytis cinerea [7]; listed as NCR13 PFV1) |
| --- | --- | --- | --- | --- | --- | --- | --- | --- | --- | --- | --- | --- | --- | --- | --- | --- | --- | --- | --- |
| NCR13_PFV2: NCR13-Ala peptide (SEQ ID NO: 2) expressed in Pichia pastoris, HPLC Peak2 folding variant (ATKPCQSDKDCKKFACRKPKVPKCINGFCKCVR; not fully specified; cysteine pairing not given here) | Inactive | 1.5 | Inactive | 1.5 | 3 µM and 3.0 µM | 24.0 µM | significant mycelial growth | 3 | ~17 | only partially inhibitory | visible fungal growth |  |  |  |  |  |  |  |  |
| NCR13_PFV1: NCR13-Ala peptide (SEQ ID NO: 2) expressed in Pichia pastoris, HPLC Peak1 folding variant (ATKPCQSDKDCKKFACRKPKVPKCINGFCKCVR; disulfide 11-29, 16-31, 5-24) | Inactive |  | Inactive |  | 0.75 µM | 6 µM and 6.0 µM | complete inhibition of conidial germination | 0.18 |  | completely inhibitory | no visible fungal growth | fourfold or greater | progressively reduced in size with increasing concentrations | two-fold higher activity | significantly decreased lesion sizes | 100 | no lesion or decay development | effective in controlling B. cinerea fungal growth | effective |
